Experiments:
[1] = target: angiotensin II receptor; experiment: Rat adrenal receptor binding assay, displacement of radiolabeled angiotensin II; set-up: species or system rat (male Sprague-Dawley); conditions: rat adrenal cortex membranes; 125I-A II 1 nM; read-out: Inhibition of 125I-Angiotensin II binding, IC50
Description: The high affinity of the compounds for the angiotensin II receptor was established using a rat adrenal receptor binding assay, measuring the displacement of radiolabeled angiotensin II (A II) from the receptor, described as follows: Anesthetize male Sprague-Dawley rats (300-400 g body weight) with CO2 and sacrifice by cervical dislocation. Dissect adrenal glands and keep in ice-cold sucrose buffer. (0.2M sucrose, 1 mM EDTA, 10 mM Trizma base, pH=7.2). Remove medulla by squashing. Mince the cortex, rinse and homogenize in a chilled ground glass tissue grinder with 15 ml sucrose buffer. Centrifuge at 3000× g for 10 min. (Sorvall RCSC centrifuge, SS34 rotor 6200 rpm). Decant supernatant through gauze. Centrifuge combined supernatants at 12000× g for 13 min. (Beckman ultracentrifuge, 80Ti rotor, 13000 rpm). Centrifuge the supernatant from the previous step at 102000× g for 60 min. (Beckman ultracentrifuge,80Ti rotor, 38200 rpm). All steps are carried out at 4° C. Resuspend the pellet in 0.5 mL assay buffer (50 mM Tris HCI, 5 mM MgCl2, 0.2% BSA (proteasefree), pH=7.4, 25° C.). Store on ice. Determine membrane protein by Lowry or Bradford assay with BSA as standard. The binding assay is performed in triplicate, in 12×75 mm plastic test tubes or in 96-well plate (final volume of 0.25 mL). Add 140 μL assay buffer. […] Calculate the quantities of hot A II and the cold A II needed and make the dilution. […]

[2] = test system: Angiotensin II infused rat; experiment: Reduction of blood pressure in Angiotensin II infused rat; format: in vivo; conditions: 3 mg/kg/ml via duodenal cannula
Description: In accordance with their ability to antagonize angiotensin II, the compounds of this invention show antihypertensive action in the following A II-infused rat model. Rats are anesthetized with Dial-Urethane (0.60 mL/kg, ip) and the trachea cannulated with PE 240. Either one femoral artery and both femoral veins or the carotid artery and the corresponding jugular vein are cannulated with PE 50. If the jugular vein is cannulated, two cannulas are placed in the one vein. The initial portion of the duodenum (just distal to the stomach) is cannulated with PE 50 via a small midline incision. Arterial pressure and heart rate are measured from the arterial cannula. Ten to 15 min are allowed following surgery for stabilization of arterial pressure. Ganglion blockade is then produced by intravenous administration of mecamylamine at 3 mg/kg (1 mL/kg of a 3 mg/mL solution). Ganglion blockade causes a fall in arterial pressure of about 50 mmHg. Mecamylamine is given every 90 min throughout the remainder of the experiment. An A II infusion is then begun into the other venous cannula at 0.25 μg/kg/min (at […]). The A II infusion returns arterial pressure to or slightly above the control level. Once arterial pressure has stabilized with the A II infusion, baseline values for mean arterial pressure (MAP) and heart rate are taken. The test compound, suspended in methyl cellulose, is then administered via the duodenal cannula at 0.1, 3 or, 30 mg/kg in a volume of 1 mL/kg. Mean arterial pressure and heart rate values are tabulated at 15, 30, 60, 90, 120, 150, 180, 210, and 240 min after administration of the test compound.

Structure (SMILES) | IC50 [1] [nM] | % decrease in MAP ([2]; 15 min) [%] | % decrease in MAP ([2]; 90 min) [%] | % decrease in MAP ([2]; 240 min) [%]
CCCc1c(CC)nc(C(F)(F)F)nc1OCc1ccc(-c2ccccc2-c2nnn[nH]2)cc1 [Example 4, 6-Ethyl-5-propyl-4-[[2'-(1H-tetrazol-5-yl)[1,1'-biphenyl]-4-yl]methoxy]-2-(trifluoromethyl)pyrimidine] | 200 | – | – | –
FC(F)(F)c1nc2c(c(OCc3ccc(-c4ccccc4-c4nnn[nH]4)cc3)n1)CCCC2 [Example 5, 4-[[2'-(1H-Tetrazol-5-yl)-biphenyl-4-yl]methoxy]-2-trifluoromethyl-5,6,7,8-tetrahydroquinazoline] | 38 | 22 | 15 | 0
